Data as given in US6818780B2, “P-hydroxyphenyl propionic acid derivatives as antiproliferative agents” (Consejo Superior de Investigaciones Cientificas, priority 2000, dated 2004).

Assays:
murine splenocytes [1] = experiment: Test of lymphocyte proliferation: proliferation of murine splenocytes (tritiated thymidine incorporation); type: cell-based, Bal b/c mice; settings: for Proliferation of murine splenocytes, mitogen Con A 2.5 μg/ml (cpm ± DS) / Proliferation of murine splenocytes, mitogen LPS 10 μg/ml (cpm ± DS) / Proliferation of murine splenocytes, mitogen PHA 50 μg/ml (cpm ± DS) / Proliferation of murine splenocytes, mitogen a CD3 20 μg/ml (cpm ± DS): 72 h incubation
Description: Proliferation of Murine Splenocytes. Material and Methods
Test of Lymphocyte Proliferation
Culture medium: DMEM+penicillin 50 UI/ml+streptomycin 50 µg/ml+glutamine 2 mM+10% foetal calf serum (complete medium) (FLOW).
Bal b/c mice were used, male, aged 6-8 weeks (IFFA-CREDO).
The cell “pellet” is resuspended in complete medium at a concentration of 4×10^6 cells/ml
In a dish with 96 flat-bottom wells, seriated dilutions are made of the mitogen problem sample with or without “lactone” in a volume of […] in complete medium to which […] 2ME have been added. All the determinations are made in triplicate.
100 μl of the cell suspension are then added, leaving a final volume of 200 μl.
The dish is incubated in a stove at 37° C., 5% CO2 for 66 h.
Following that incubation period, 1 μCi of tritiated thymidine is added to each well.
The dish is again incubated for 6 h.
Once that new incubation period has ended, the dish is processed in a Skatron Harvester, using special Wathman filter paper for this.
The cpm are determined in a liquid scintillation counter.
Negative control: cells in the presence of complete culture medium.
Positive control: cells in the presence of some mitogen.
Arithmetic mean of cpm±standard deviation (1)
The statistical significance is determined by the Student t method.
The results are summarised in the following tables (the cpm are stated following a pulse of tritiated thymidine. The samples of splenocytes were cultivated for 72 h in the presence of mitogen and lactone at the stated concentrations).

[2] = tested on: human peripheral blood mononuclear cells; experiment: Stability studies: antiproliferative activity of lactone kept one year in DMSO, human peripheral blood mononuclear cells; type: cell-based; settings: for Proliferation of human peripheral blood mononuclear cells, Medium (cpm ± DS) / Proliferation of human peripheral blood mononuclear cells, PHA 10 μg/ml (cpm ± DS) / Proliferation of human peripheral blood mononuclear cells, PHA + rhIL-2 (cpm ± DS): sample kept one year at room temperature at 40.0 mg/ml in DMSO
Description: General culture conditions: All cell cultures were developed under conditions of sterility in a vertical laminar flow chamber, using single-use sterile materials or materials sterilised in an autoclave or with ethylene oxide. The cultures were conserved in a stove kept at a temperature of 37° C., in an atmosphere with 5% CO2 and relative humidity of 95%. In the various experiments performed, the purified CMSP cell preparations were incubated in sterile dishes with 96 wells at concentrations of 5×10^4 cells/well (200 μl) in the presence of different concentrations of different mitogens for 5 days.
The method used for quantifying the cell proliferation was analysis of the incorporation of ^3H-thymidine (^3H-T) into DNA synthesised de novo, detecting the emission of β radiation from the dry extracts of cell cultures to which the tritiated base had been added before its finalisation and collection. The synthesis of DNA was done in triplicate on sterile dishes with 96 flat-bottom wells.
From 20 to 24 hour prior to terminating the cell culture, 1 μCi of ^3H-T was added to each well containing medium; the cultures were gathered by suction through a glass filter, using a Skatron culture collector for this.
The synthesis of DNA has been expressed in counts per minute (cpm). Each test was conducted in triplicate, with those data having a variability greater than 10% compared to the mean of the triplicate being rejected, since they could indicate a technical error or contamination in the culture. The cultures were carried out at a constant cell volume per well, as well as at a constant volume of 200 μl.
The sample remains for one year at room temperature and at a concentration of 40.0 mg/ml in DMSO.

murine splenocytes [3] = experiment: Test of lymphocyte proliferation: proliferation of murine splenocytes (tritiated thymidine incorporation); type: cell-based, Bal b/c mice; settings: range 100-0.75 μg/ml
[4] = murine splenocytes, 72 h with mitogen and lactone

## C=C1C(=O)OC(CCc2ccc(OC)cc2)C1C (stereo not shown) [lactone]
Murine splenocytes [1]; Lactone 0.75 μg/ml
  Proliferation of murine splenocytes, mitogen Con A 2.5 μg/ml (cpm ± DS): 131,523 cpm
Murine splenocytes [1]; Lactone 1.5 μg/ml
  Proliferation of murine splenocytes, mitogen Con A 2.5 μg/ml (cpm ± DS): 150,400 cpm
Murine splenocytes [1]; Lactone 3 μg/ml
  Proliferation of murine splenocytes, mitogen Con A 2.5 μg/ml (cpm ± DS): 92,600 ± 100 cpm
Murine splenocytes [1]; Lactone 6 μg/ml
  Proliferation of murine splenocytes, mitogen Con A 2.5 μg/ml (cpm ± DS): 78,200 ± 725 cpm
Murine splenocytes [1]; Lactone 12 μg/ml
  Proliferation of murine splenocytes, mitogen Con A 2.5 μg/ml (cpm ± DS): 370 ± 20 cpm
Murine splenocytes [1]; Lactone 25 μg/ml
  Proliferation of murine splenocytes, mitogen Con A 2.5 μg/ml (cpm ± DS): 244 ± 15 cpm
  Proliferation of murine splenocytes, mitogen LPS 10 μg/ml (cpm ± DS): 3,200 ± 400 cpm
  Proliferation of murine splenocytes, mitogen PHA 50 μg/ml (cpm ± DS): 21,000 cpm
  Proliferation of murine splenocytes, mitogen a CD3 20 μg/ml (cpm ± DS): 5,600 ± 300 cpm
Murine splenocytes [1]; Lactone 50 μg/ml
  Proliferation of murine splenocytes, mitogen Con A 2.5 μg/ml (cpm ± DS): 190 ± 10 cpm
  Proliferation of murine splenocytes, mitogen LPS 10 μg/ml (cpm ± DS): 2,700 ± 120 cpm
  Proliferation of murine splenocytes, mitogen PHA 50 μg/ml (cpm ± DS): 19,000 cpm
  Proliferation of murine splenocytes, mitogen a CD3 20 μg/ml (cpm ± DS): 1,235 ± 200 cpm
Murine splenocytes [1]; Lactone 100 μg/ml
  Proliferation of murine splenocytes, mitogen Con A 2.5 μg/ml (cpm ± DS): 147 ± 10 cpm
  Proliferation of murine splenocytes, mitogen LPS 10 μg/ml (cpm ± DS): 614 ± 35 cpm
  Proliferation of murine splenocytes, mitogen PHA 50 μg/ml (cpm ± DS): 19,500 cpm
  Proliferation of murine splenocytes, mitogen a CD3 20 μg/ml (cpm ± DS): 285 ± 20 cpm
Murine splenocytes [1]; [4]
  Inhibition of proliferation induced by ConA, antiCD3 and LPS: clearly demonstrated its capacity for inhibiting proliferation
  Inhibition of proliferation induced by PHA: but not that induced by PHA
Murine splenocytes [1]; no mitogen, range 100-0.75 μg/ml, sample dissolved in DMSO at 40.0 mg/ml
  Proliferative effect per se on murine splenocytes: No effect
[2]; Lactone 0.25 μg/ml
  Proliferation of human peripheral blood mononuclear cells, Medium (cpm ± DS): 283 ± 9 cpm
  Proliferation of human peripheral blood mononuclear cells, PHA 10 μg/ml (cpm ± DS): 60428 ± 5820 cpm
  Proliferation of human peripheral blood mononuclear cells, PHA + rhIL-2 (cpm ± DS): 144693 ± 9470 cpm
[2]; Lactone 100 μg/ml
  Proliferation of human peripheral blood mononuclear cells, Medium (cpm ± DS): 47 ± 5 cpm
  Proliferation of human peripheral blood mononuclear cells, PHA 10 μg/ml (cpm ± DS): 906 ± 251 cpm
  Proliferation of human peripheral blood mononuclear cells, PHA + rhIL-2 (cpm ± DS): 341 ± 21 cpm
[2]; one year at room temperature, 40.0 mg/ml in DMSO, judged by antiproliferative activity
  Stability over time of the product dissolved in dimethylsulphoxide (DMSO): the antiproliferative biological activity of lactone is demonstrated
Murine splenocytes [3]
  Cytotoxicity effects on murine splenocytes: Nor was are cytotoxicity effects found
